Values quoted from earlier work in patent US20240390871A1, “Production of encapsulated nanoparticles at high volume fractions” (iCeutica Pty Ltd., priority 2009, published 2024).

Settings: previous animal studies; reducing the size of metaxalone

Cc1cc(C)cc(OCC2CNC(=O)O2)c1 (stereo not shown) [metaxalone]
rates of absorption and overall bioavailability (as measured by AUC): much higher rates of absorption and overall bioavailability
